Assay results published in patent US10426755B2, “Methods for inhibiting cancer cells” (Chang Gung Memorial Hospital, Chiayi, priority 2015, dated 2019).
Entries after “also recorded” stand apart in the source; their conditions may differ.

Experiments:
Type in all cases: cell-based
[1] = system: prostate cancer cells (PC3, DU145 and 22RV1); test: Prostate cancer cell invasion assay with DT-treated conditioned media; settings: 5-10 μM DT, 24 hours, results not shown
Experimental: (§1) Cell Invasion Assay: cells of interest were treated with a control vehicle, 5 or 10 μM of DT and incubated for 3 days. 1×10^5 cells were placed into the upper chamber of transwell plates (8 μm) with membranes pre-coated with 20% Matrigel and the bottom chamber contained 600 μL media supplemented with 10% fetal bovine serum (FBS). The cells migrated to the bottom of the chamber were fixed, stained and counted.
(§2) As illustrated in Example 10, the production of CCL2 was inhibited by DT in both prostate cancer cells and macrophage, the effect of DT on monocyte/cancer cell co-culture and macrophage/cancer cell co-culture was examined using the invasion assay described in Example 9. • (a) THP1 monocytes, Raw264.7 macrophage, monocyte/prostate cancer co-culture and macrophage/prostate cancer co-culture were treated with a vehicle (DMSO), 5 or 10 μM DT for 24 hours, the cultured medium was collected and placed into the lower chamber of a transwell plate. • (b) Prostate cancer cells (PC3, DU145 and 22RV1) were placed in the cell invasion assay). The level of CCL2 in the invasion assay was measured by ELIZA method.

[2] = system: lung cancer cell lines (A549 and chemotherapy-resistant/metastatic H460); test: XTT proliferation assay, lung cancer cells; settings: 1-2 days, FIG. 2
Experimental: The prostate cancer cells were plated at a density of 10^3 or 3×10^3 per well, in a 96-well plate, in a medium containing 10% Fetal bovine serum (FBS) (Gibco®, commercially available from Life Technologies, USA). Once the prostate cancer cells were attached to the culture dish, the 10% FBS medium was replaced with a second 10% FBS medium and each of the prostate cancer cell line was treated with 1, 5, and 10 μM of DT respectively for 1-2 days. The absorbance was measured using XTT assay kit (commercially available from Roche, Switzerland) at 492 nm using an ELISA reader (Bio-Rad Laboratories, USA). An in vitro evaluation of the effect of DT, gemcitabine (a chemotherapeutic agent) and etoposide (a chemotherapeutic agent) on the lung cancer cells was performed. The lung cancer cell lines, chemotherapy-resistant/metastatic H460 lung cancer cells (with pleural metastasis) and A549 lung cancer cells, were purchased from Bioresource Collection and Research Center, Taiwan. […] The absorbance was measured using XTT assay kit at 492 nm using an ELISA reader.

[3] = system: CCL2 in THP1/DU145 co-culture; test: CCL2 ELISA, THP1/DU145 co-culture; settings: DT-treated monocyte/DU145 co-culture medium; 5 or 10 μM DT, 24 hours; FIG. 15 (a)
Experimental: as §2

[4] = system: prostate cancer cells (metastatic DU145, PC3, 22RV1); test: Cell invasion assay (transwell, Matrigel), prostate cancer cells; settings: 5 or 10 μM DT, 3 days, vs control vehicle; FIG. 12 (a), (c), (e)
Experimental: (§3) An in vitro evaluation of the effect of DT on lung cancer cells (A549 and chemotherapy resistant/metastatic H460), prostate cancer cells (metastatic DU145) and colorectal cancer cells (chemotherapy resistant HCT116) invasion and migration was performed, using cell invasion assay and cell migration assay.
as §1

[5] = system: macrophages with prostate cancer cells (DU145 or PC3); test: Macrophage migration in invasive assay with DT-treated prostate cancer cells; settings: DT-treated vs untreated DU145 and PC3 cells; images not shown
Experimental: An in vitro study to evaluate the effect of DT on macrophage and cancer cell migration was performed.
Macrophages were treated with a vehicle (DMSO), 5 or 10 μM DT. The mobility of the macrophages was not affected by DT. The macrophages were placed in an invasive assay, prepared accordingly to the steps in Example 10 using DT-treated prostate cancer cells (DU145 or PC3) incubated in 10% CD-FBS RPMI medium.

[6] = system: CCL2 in THP1 cells/22RV1 co-culture; test: CCL2 ELISA, THP1/22RV1 co-culture; settings: DT-treated monocyte/22RV1 co-culture medium; 5 or 10 μM DT, 24 hours; FIG. 15 (b)
Experimental: as §2

[7] = system: prostate cancer cells (metastatic DU145, PC3, 22RV1); test: Cell migration (wound-healing) assay, prostate cancer cells; settings: DT vs control vehicle, 24 h, dose dependent; FIG. 12 (b), (d), (f)
Experimental: as §3
Cell Migration Assay: In vitro wound-healing assay was used to assess cell motility in two dimensions. Cancer cells were plated overnight to achieve a subconfluent cell layer in 24-well plates. A scratch was made on the cell layer with a micropipette tip, and cultures were washed twice with serum-free medium to remove floating cells. Cancer cells were incubated in a culture medium containing DT or the control vehicle. Wound healing was visualized by comparing photographs taken at the time of adding the DT/control vehicle and 24 h later. Three experiments were done in quadruplicates.

[8] = system: CCL2 in hormone therapy resistant and metastatic PC3 prostate cancer cells; test: CCL2 ELISA of culture medium, PC3; settings: 5 or 10 μM DT, 24 hours, vs DMSO, FIG. 14 (d)
Experimental: It has been reported that increased CCL2 expression enhances cancer cell metastasis via macrophage recruitment. The effect of DT on CCL2 expression in RAW264.7 macrophages, THP1 monocytes and prostate cancer cells (metastatic DU145 and hormone therapy resistant and metastatic PC3) was examined by treating the cells with DMSO (control), 5 or 10 μM DT for 24 hours.
The culture medium was collected and the concentration of CCL2 was measured using ELISA assay.

[9] = system: lung cancer cells (A549 and chemotherapy resistant/metastatic H460); test: Cell invasion assay (transwell, Matrigel), lung cancer cells; settings: 5 or 10 μM DT, 3 days, vs control vehicle; FIG. 11
Experimental: as §3, §1

[10] = system: prostate cancer cell lines (LNCaP, hormone therapy-resistant PC3, DU145 and 22RV1); test: XTT proliferation assay, prostate cancer cells; settings: 1, 5 and 10 μM DT, 1-2 days, XTT absorbance 492 nm; FIG. 1
Experimental: An in vitro evaluation of the effect of dihydroisotanshinone I (DT) on the following prostate cancer cell lines was performed: LNCaP (with lymph node metastasis), hormone therapy resistant PC3 (with bone metastasis), 22RV1, DU145 (with brain metastasis), were obtained from Bioresource Collection and Research Center, Taiwan and DT was purchased from ChemFaces Co., Ltd., China.
The prostate cancer cells were plated at a density of 10^3 or 3×10^3 per well, in a 96-well plate, in a medium containing 10% Fetal bovine serum (FBS) (Gibco®, commercially available from Life Technologies, USA). Once the prostate cancer cells were attached to the culture dish, the 10% FBS medium was replaced with a second 10% FBS medium and each of the prostate cancer cell line was treated with 1, 5, and 10 μM of DT respectively for 1-2 days. The absorbance was measured using XTT assay kit (commercially available from Roche, Switzerland) at 492 nm using an ELISA reader (Bio-Rad Laboratories, USA).

Cc1cccc2c3c(ccc12)C(=O)C1=C(OCC1C)C3=O (centres unmarked) [DT, dihydroisotanshinone I]
migration of prostate cancer cells ([1]; DT-treated macrophage medium): significantly inhibit the migration of prostate cancer cells in a dose-dependent manner | migration of prostate cancer cells ([1]; DT-treated macrophage/prostate cancer co-culture medium): significantly inhibit the migration of prostate cancer cells in a dose-dependent manner | migration of prostate cancer cells ([1]; DT-treated monocyte medium): significantly inhibit the migration of prostate cancer cells in a dose-dependent manner | migration of prostate cancer cells ([1]; DT-treated monocyte/prostate cancer co-culture medium): significantly inhibit the migration of prostate cancer cells in a dose-dependent manner | inhibition of lung cancer cells (proliferation) ([2]; 5, 10 and 20 μM DT, XTT): inhibits the lung cancer cells in a dose dependent fashion | inhibition of lung cancer proliferation, DT compared with gemcitabine and etoposide ([2]; DT 5, 10, 20 μM, gemcitabine hydrochloride and etoposide 10, 20 μM, regardless of the dosage, also H460): more effective than gemcitabine and etoposide in inhibiting lung cancer proliferation | concentration of CCL2 [3]: significantly reduced | prostate cancer cell motility (invasion assay) [4]: reduced the motility and migration of prostate cancer cells | macrophage migration induced by prostate cancer cells [5]: inhibit macrophage migration | concentration of CCL2 [6]: significantly reduced | prostate cancer cell migration into the wounded area [7]: reduced the motility and migration of prostate cancer cells; also recorded: reduced prostate cancer cell migration into the wounded area | production of CCL2 in PC3 prostate cancer cells [8]: effectively inhibit the production of CCL2 | lung cancer cell motility (invasion assay) [9]: reduced metastatic lung cancer cell motility; also recorded: reduced the motility of lung cancer cells | inhibition of prostate cancer cell proliferation [10]: inhibits prostate cancer cell proliferation in a dose dependent fashion
